Test results as given in patent US11992494B2, “Cyclopentathiophene carboxamide derivatives as platelet activating factor receptor antagonists” (Boehringer Ingelheim International GmbH, priority 2021, dated 2024).

Molecular target: PAFR (Homo sapiens, UniProt P25105)
Experiment: cellular HTRF IP1 assay: inhibition of PAFR activation by PAF C-16 ligand (endpoint assay)
Format: cell-based
Set-up: expressed in transfected cells; host or cells: HEK293
Settings: HEK293 cells overexpressing human PAFR; PAF ligand 11 nM; Table 2
Procedure: The ability of compounds of formula (I) to inhibit the activation of the PAF receptor (PAFR) by the PAF C-16 ligand (PAF) is determined using the following cellular HTRF IP1 assay (IP1 Gq assay kit from Cisbio, Cat. no.: 62IP1APEJ) in assay buffer (1×HBSS, 20 mM Hepes, pH 7.4, 50 mM LiCl and containing 0.1% (w/v) BSA):
Evaluation of the Inhibition of PAFR Activation Using an Endpoint Assay
HEK293 cells overexpressing human PAFR (produced in-house) are seeded into a Poly-D-Lysine coated 384 well white cell culture microtiter assay plate with lid (15.000 cells per well). Subsequently, the plates are incubated over night at 37° C./5% CO2. On the next day, cells are being washed and subsequently, various concentrations of the test compounds (compounds in 100% DMSO; final concentration of DMSO in wells is 1%) are added to the assay plate via Echo 555 acoustic liquid handler. Plates are then incubated with lid for 90 minutes at 37° C./5% CO2. Thereafter, PAF ligand (Cayman Chemical Company, Item no.: 60900) is added at a final concentration of 11 nM. Plates are then incubated with lid for 60 minutes at 37° C./5% CO2. Then, 5 μl per well of Anti-IP1-Antibody-Cryptate solution and 5 μl per well of IP1-d2 solution are added to all wells of the plate and the plate is incubated for another 60 minutes light protected at room temperature. The emissions at 620 nm and 665 nm (Excitation wavelength: 320 nm) are measured using an Envision Reader (PerkinElmer).

PAFR, sequence (P25105 whole entry): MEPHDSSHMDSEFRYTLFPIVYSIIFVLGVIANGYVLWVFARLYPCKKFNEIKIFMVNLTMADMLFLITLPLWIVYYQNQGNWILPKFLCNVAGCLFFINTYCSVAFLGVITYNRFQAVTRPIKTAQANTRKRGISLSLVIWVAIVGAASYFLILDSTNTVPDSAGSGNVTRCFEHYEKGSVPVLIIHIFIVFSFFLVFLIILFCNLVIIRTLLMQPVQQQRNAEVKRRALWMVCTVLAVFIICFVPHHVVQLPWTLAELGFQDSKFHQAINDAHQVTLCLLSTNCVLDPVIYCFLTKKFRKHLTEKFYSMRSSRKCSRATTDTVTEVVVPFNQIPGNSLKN

| SMILES | IC50 [nM] |
| --- | --- |
| Cc1nnc2n1-c1sc3c(c1C(c1ccccc1Cl)=NC21CC1)C[C@H](C(=O)N[C@@H]1CCc2c1ccnc2N)C3 [Example 103] | 14 |
| Cc1nnc2n1-c1sc3c(c1C(c1ccccc1Cl)=NC21CC1)C[C@H](C(=O)N1CCO[C@@H](C)C1)C3 [Example 106, (13′S)-9′-(2-chlorophenyl)-3′-methyl-13′-[(2S)-2-methylmorpholine-4-carbonyl]-16′-thia-2′,4′,5′,8′-tetraazaspiro[cyclopropane-1,7′-tetracyclo-[8.6.0.0^2,6.0^11,15]hexadecane}-1′(10′),3′,5′,8′,11′(15′)-pentaene] | 7.5 |
| Cc1nnc2n1-c1sc3c(c1C(c1ccccc1Cl)=NC21CC1)C[C@H](C(=O)N[C@@H]1C[C@H]1C)C3 [Example 107] | 2.7 |
| Cc1nnc2n1-c1sc3c(c1C(c1ccccc1Cl)=NC21CC1)C[C@H](C(=O)N[C@@H]1COCC(F)(F)C1)C3 [Example 110] | 4.3 |
| Cc1nnc2n1-c1sc3c(c1C(c1ccccc1Cl)=NC21CC1)C[C@H](C(=O)N(C)[C@H]1CC[C@H](O)CC1)C3 [Example 112] | 22 |
| CCCN(C(=O)[C@@H]1Cc2sc3c(c2C1)C(c1ccccc1Cl)=NC1(CC1)c1nnc(C)n1-3)C1CCOCC1 [Example 115, (13′S)-9′-(2-chlorophenyl)-3′-methyl-N-(oxan-4-yl)-N-propyl-16′-thia-2′,4′,5′,8′-tetraazaspiro-[cyclopropane-1,7′-tetracyclo[8.6.0.0^2,6.0^11,15]hexadecane]-1′(10′),3′,5′,8′,11′(15′)-pentaene-13′-carboxamide] | 25 |
| Cc1nnc2n1-c1sc3c(c1C(c1ccccc1Cl)=NC21CC1)C[C@H](C(=O)N[C@H]1COCC(F)(F)C1)C3 [Example 116] | 3.9 |
| Cc1nnc2n1-c1sc3c(c1C(c1ccccc1Cl)=NC21CC1)C[C@H](C(=O)NC1CCC(F)(F)CC1)C3 [Example 118] | 2.8 |
| CCc1nnc2n1-c1sc3c(c1C(c1ccccc1Cl)=NC21CC1)C[C@H](C(=O)N1CCOCC1)C3 [Example 119, (13′S)-9′-(2-chlorophenyl)-3′-ethyl-13′-(morpholine-4-carbonyl)-16′-thia-2′,4′,5′,8′-tetraazaspiro[cyclopropane-1,7′-tetracyclo[8.6.0.0^2,6.0^11,15]hexadecane]-1′(10′),3′,5′,8′,11′(15′)-pentaene] | 15 |
| Cc1nnc2n1-c1sc3c(c1C(c1ccccc1)=NC21CC1)C[C@H](C(=O)N1CCOCC1)C3 [Example 120, (13′S)-3′-methyl-13′-(morpholine-4-carbonyl)-9′-phenyl-16′-thia-2′,4′,5′,8′-tetraazaspiro[cyclopropane-1,7′-tetracyclo[8.6.0.0^2,6.0^11,15]hexadecane]-1′(10′),3′,5′,8′,11′(15′)-pentaene] | 14 |
| Cc1nnc2n1-c1sc3c(c1C(c1ccccc1Cl)=NC21CC1)C[C@H](C(=O)NC1(C(C)(C)O)CC1)C3 [Example 122, (13′S)-9′-(2-chlorophenyl)-N-[1-(2-hydroxy-propan-2-yl)cyclopropyl]-3′-methyl-16′-thia-2′,4′,5′,8′-tetraazaspiro[cyclopropane-1,7′-tetracyclo[8.6.0.0^2,6.0^11,15]hexadecane]-1′(10′),3′,5′,8′,11′(15′)-pentaene-13′-carboxamide] | 37 |
| Cc1nnc2n1-c1sc3c(c1C(c1ccccc1Cl)=NC21CC1)C[C@H](C(=O)N[C@@H](C)CF)C3 [Example 125] | 5.8 |
| Cc1nnc2n1-c1sc3c(c1C(c1ccccc1Cl)=NC21CC1)C[C@H](C(=O)N1CCC(F)(F)CC1)C3 [Example 129, (13′S)-9′-(2-chlorophenyl)-13′-(4,4-difluoropiperidine-1-carbonyl)-3′-methyl-16′-thia-2′,4′,5′,8′-tetraazaspiro[cyclopropane-1,7′-tetracyclo[8.6.0.0^2,6.0^11,15]hexadecane]-1′(10′),3′,5′,8′,11′(15′)-pentaene] | 2.5 |
| COc1ccccc1C1=NC2(CC2)c2nnc(C)n2-c2sc3c(c21)C[C@H](C(=O)N1CCOCC1)C3 [Example 130, (13′S)-9′-(2-methoxyphenyl)-3′-methyl-13′-(morpholine-4-carbonyl)-16′-thia-2′,4′,5′,8′-tetraazaspiro[cyclopropane-1,7′-tetracyclo[8.6.0.0^2,6.0^11,15]hexadecane]-1′(10′),3′,5′,8′,11′(15′)-pentaene] | 84 |

Continued, values first:

| IC50 [nM] | SMILES |
| --- | --- |
| 6.9 | Cc1nnc2n1-c1sc3c(c1C(c1ccccc1Cl)=NC21CC1)C[C@H](C(=O)N(C)[C@H]1CCCC[C@H]1O)C3 [Example 102] |
| 3.6 | Cc1nnc2n1-c1sc3c(c1C(c1ccccc1Cl)=NC21CC1)C[C@H](C(=O)N1CCC(F)(F)C1)C3 [Example 105, (13′S)-9′-(2-chlorophenyl)-13′-(3,3-difluoro-pyrrolidine-1-carbonyl)-3′-methyl-16′-thia-2′,4′,5′,8′-tetraazaspiro[cyclopropane-1,7′-tetracyclo[8.6.0.0^2,6.0^11,15]hexadecane]-1′(10′),3′,5′,8′,11′(15′)-pentaene] |
| 4.6 | Cc1nnc2n1-c1sc3c(c1C(c1ccccc1Cl)=NC21CC1)C[C@H](C(=O)N1C[C@H](C)O[C@@H](C)C1)C3 [Example 108, (13′S)-9′-(2-chlorophenyl)-13′-[(2S,6S)-2,6-dimethylmorpholine-4-carbonyl]-3′-methyl-16′-thia-2′,4′,5′,8′-tetraazaspiro[cyclopropane-1,7′-tetracyclo[8.6.0.0^2,6.0^11,15]hexadecane]-1′(10′),3′,5′,8′,11′(15′)-pentaene] |
| 1.1 | CCC12CC(NC(=O)[C@@H]3Cc4sc5c(c4C3)C(c3ccccc3Cl)=NC3(CC3)c3nnc(C)n3-5)(C1)C2 [Example 109] |
| 24 | Cc1nnc2n1-c1sc3c(c1C(c1ccccc1Cl)=NC21CC1)C[C@H](C(=O)N(C)[C@H]1CCN(S(C)(=O)=O)C1)C3 [Example 111, (13′S)-9′-(2-chlorophenyl)-N-[(3S)-1-methanesulfonylpyrrolidin-3-yl]-N,3′-dimethyl-16′-thia-2′,4′,5′,8′-tetraazaspiro[cyclopropane-1,7′-tetracyclo[8.6.0.0^2,^6.0^11,15]hexadecane]-1′(10′),3′,5′,8′,11′(15′)-pentaene-13′-carboxamide] |
| 28 | Cc1nnc2n1-c1sc3c(c1C(c1ccccc1Cl)=NC21CC1)C[C@H](C(=O)N[C@H]1C[C@H](S(C)(=O)=O)C1)C3 [Example 113] |
| 28 | Cc1nnc2n1-c1sc3c(c1C(c1ccccc1Cl)=NC21CC1)C[C@H](C(=O)NC1(c2cncnc2)CC1)C3 [Example 117] |
| 30 | Cc1nnc2n1-c1sc3c(c1C(c1ccccc1Cl)=NC21CC1)C[C@H](C(=O)NC1CCCS(=O)(=O)C1)C3 (stereo partly drawn) [Example 121, (13′S)-9′-(2-chlorophenyl)-N-(1,1-dioxo-1lambda6-thian-3-yl)-3′-methyl-16′-thia-2′,4′,5′,8′-tetraazaspiro[cyclopropane-1,7′-tetra-cyclo[8.6.0.0^2,6.0^11,15]hexadecane]-1′(10′),3′,5′,8′,11′(15′)-pentaene-13′-carboxamide] |
| 5 | Cc1nnc2n1-c1sc3c(c1C(c1ccccc1Cl)=NC21CC1)C[C@H](C(=O)N1C[C@@H](C)O[C@H](C)C1)C3 [Example 123, (13′S)-9′-(2-chlorophenyl)-13′-[(2R,6R)-2,6-dimethylmorpholine-4-carbonyl]-3′-methyl-16′-thia-2′,4′,5′,8′-tetraazaspiro[cyclopropane-1,7′-tetracyclo[8.6.0.02,6.011,15]hexadecane]-1′(10′),3′,5′,8′,11′(15′)-pentaene] |
| 9.4 | Cc1nnc2n1-c1sc3c(c1C(c1ccccc1Cl)=NC21CC1)C[C@H](C(=O)N1CC2(CCCO2)C1)C3 [Example 126, (13′S)-9′-(2-chlorophenyl)-3′-methyl-13′-{5-oxa-2-azaspiro[3.4]octane-2-carbonyl}-16′-thia-2′,4′,5′,8′-tetraazaspiro[cyclopropane-1,7′-tetracyclo[8.6.0.0^2,6.0^11,15]hexadecane]-1′(10′),3′,5′,8′,11′(15′)-pentaene] |
| 5.8 | Cc1nnc2n1-c1sc3c(c1C(c1ccccc1Cl)=NC21CC1)C[C@H](C(=O)N1CCOCC12CC2)C3 [Example 127, (13′S)-9′-(2-chlorophenyl)-3′-methyl-13′-{7-oxa-4-azaspiro[2.5]octane-4-carbonyl}-16′-thia-2′,4′,5′,8′-tetraazaspiro[cyclopropane-1,7′-tetracyclo[8.6.0.0^2,6.0^11,15]hexadecane]-1′(10′),3′,5′,8′,11′(15′)-pentaene] |
| 5.7 | Cc1noc(C)c1NC(=O)[C@@H]1Cc2sc3c(c2C1)C(c1ccccc1Cl)=NC1(CC1)c1nnc(C)n1-3 [Example 128] |

Same assay, conditions: S-bepafant and its methylated derivatives in the above-mentioned assay

| IC50 [nM] | SMILES |
| --- | --- |
| 73.5 | Cc1nnc2n1-c1sc3c(c1C(c1ccccc1Cl)=NC2)C[C@H](C(=O)N1CCOCC1)C3 [S-bepafant, reference compound] |

Same assay, conditions: dedicated head-to-head comparison assay run: cyclopropylene vs di-methyl / cyclobutylene analogues

| IC50 [nM] | SMILES |
| --- | --- |
| 11.9 | Cc1nnc2n1-c1sc3c(c1C(c1ccccc1Cl)=NC21CC1)C[C@H](C(=O)N(C)[C@H]1CC[C@H](O)CC1)C3 [Example 112] |
| 5.5 | Cc1noc(C)c1NC(=O)[C@@H]1Cc2sc3c(c2C1)C(c1ccccc1Cl)=NC1(CC1)c1nnc(C)n1-3 [Example 128] |
| 2.6 | Cc1nnc2n1-c1sc3c(c1C(c1ccccc1Cl)=NC21CC1)C[C@H](C(=O)N1CCC(F)(F)CC1)C3 [Example 129, (13′S)-9′-(2-chlorophenyl)-13′-(4,4-difluoropiperidine-1-carbonyl)-3′-methyl-16′-thia-2′,4′,5′,8′-tetraazaspiro[cyclopropane-1,7′-tetracyclo[8.6.0.0^2,6.0^11,15]hexadecane]-1′(10′),3′,5′,8′,11′(15′)-pentaene] |
| 89 | Cc1nnc2n1-c1sc3c(c1C(c1ccccc1Cl)=NC2(C)C)C[C@H](C(=O)N1CCOCC1)C3 [comparative example 1, reference compound] |
